According to US20090036488A1, “RECURRENCE PREVENTIVE THERAPEUTIC AGENT FOR PSYCHOSTIMULANT-INDUCED PSYCHOSIS AND SCHIZOPHRENIA” (Tokyo Medical and Dental University, priority 2005, published 2009):

Experiments:
[1] = tested on: MAP reverse tolerance model; assay: Test to confirm effects of administration with fluoxetine or paroxetine in the MAP reverse tolerance model; format: in vivo, mice
Description: Regarding formation of reverse tolerance, 1 mg/kg/day MAP was administered to eight-week-old male ddy mice for ten days as a pretreatment in a similar way to the abovementioned method. After a 11-day washout period, 10 mg/kg/day fluoxetine was then administered. Fluoxetine was prepared by dissolving in saline and administered by subcutaneous injection. In addition, after 9 to 11-day washout period, 0.24 mg/kg MAP was administered, the locomotor hyperactivity of the mice was measured and evaluated one hour later.
Regarding formation of reverse tolerance, MAP 1 mg/kg/day […] was administered to eight-week-old male ddy mice for ten days as a pretreatment in a similar way to the abovementioned method. After an 11-day washout period, 8 mg/kg/day paroxetine was then administered. Paroxetine was prepared by dissolving in saline and administered by subcutaneous injection. In addition, after 9 to 11-day washout period, 0.24 mg/kg MAP was administered, and the locomotor hyperactivity of the mice was measured and evaluated one hour later.

[2] = tested on: male ddy mice; assay: Test for formation/maintenance of reverse tolerance; format: in vivo
Description: Methamphetamine (hereinafter, may be also referred to as “MAP”) which is a psychostimulant was administered to an animal, and then formation/maintenance of reverse tolerance was verified. In this test, eight-week-old male ddy mice were used. […] First, mice were divided into two groups, and then 1 mg/kg/day MAP and saline were respectively administered to each group for ten days as pretreatment. The agent was prepared by dissolving in saline and administered by subcutaneous injection. Hereinafter, the group to which MAP was administered is called “MAP administrated group”, and the group to which saline was administered is called “SAL administrated group”. MAP of 1 mg/kg used here corresponds an amount to result in increase in locomotor hyperactivity when it is administered to mice. In addition, a first administration of MAP was conducted after a 10-day washout period in order to confirm if this phenomenon was maintained. The dosage, 0.24 mg/kg, was less than that of the pretreatment, which is reportedly a quantity not causing abnormal behavior to appear in normal mice received the administration. Then, following a 29-day washout period, a second administration was conducted. Upon the administration on the day 10 and the day 29, MAP was also administered to the SAL administrated group in the same amount as administered to the MAP administrated group.
During the pretreatment, activity quantity in an hour was measured after MAP or saline administration on Days 1, 3, 7, and 10. […] In the case of a typical drug administration, tolerance is formed to gradually decrease influences of the administered drug.
In addition, comparing the MAP administrated group with the SAL administrated group, in both administrations on day 10 and day 29, it was clear that the activity quantity of the MAP administrated group was higher, so that it was confirmed that influences of the drug were maintained even after a longer than one-month washout period.

SMILES: Fc1ccc([C@@H]2CCNC[C@H]2COc2ccc3c(c2)OCO3)cc1 [PLX, paroxetine]
- locomotor hyperactivity vs group without PLX in the treatment phase (Example 2 vs Comparative Example 14) ([1]; MAP 1 mg/kg/day for 10 days, 11-day washout, paroxetine 8 mg/kg/day s.c., 9 to 11-day washout, 0.24 mg/kg MAP, measured one hour later): locomotor hyperactivity decreased
- reverse tolerance, vs group in which reverse tolerance was not formed (Example 2 vs Comparative Example 10) ([1]; paroxetine 8 mg/kg/day s.c. after MAP pretreatment, 0.24 mg/kg MAP challenge): reverse tolerance disappeared
- effect of PLX itself on activity quantity (Comparative Example 8 vs 9, 10 vs 11) ([1]; saline pretreatment, reverse tolerance not formed, paroxetine 8 mg/kg/day s.c.): did not decrease activity quantity

SMILES: CNCCC(Oc1ccc(C(F)(F)F)cc1)c1ccccc1 (stereo not drawn) [FLX, fluoxetine]
- locomotor hyperactivity vs group without FLX in the treatment phase (Example 1 vs Comparative Example 7) ([1]; MAP 1 mg/kg/day for 10 days, 11-day washout, fluoxetine 10 mg/kg/day s.c., 9 to 11-day washout, 0.24 mg/kg MAP, measured one hour later): locomotor hyperactivity decreased
- reverse tolerance, vs group in which reverse tolerance was not formed (Example 1 vs Comparative Example 3) ([1]; fluoxetine 10 mg/kg/day s.c. after MAP pretreatment, 0.24 mg/kg MAP challenge): reverse tolerance disappeared
- effect of FLX itself on activity quantity (Comparative Example 1 vs 2, 3 vs 4) ([1]; saline pretreatment, reverse tolerance not formed, fluoxetine 10 mg/kg/day s.c.): did not decrease the activity quantity

SMILES: CN[C@@H](C)Cc1ccccc1 [MAP, Methamphetamine]
- activity quantity after MAP re-administration, MAP administrated group vs SAL administrated group ([2]; 0.24 mg/kg MAP on day 10 and day 29 after washout): higher
- formation of reverse tolerance ([2]; MAP 1 mg/kg/day s.c. for ten days): reverse tolerance was formed
- activity quantity in an hour (locomotor hyperactivities per hour) during pretreatment ([2]; MAP 1 mg/kg/day s.c. for ten days, measured on Days 1, 3, 7 and 10): increased in a time dependent manner
